In the OPERA property sets (Mansouri et al. 2018):

Structure (SMILES)	logP
CCN1CC(C(O)C(CC2CCCCC2)NC(=O)C(Cc2cnc[nH]2)NC(=O)C(Cc2ccc(OC)cc2)NC(=O)N(C)CC(O)CO)OC1=O (centres undefined)	1.42
N[C@@H](Cc1cnccn1)C(=O)O	-2.79
CCC(C(=O)OCc1ccccc1)C(COC(=O)c1cccc(Cl)c1)Cc1cncn1C (centres undefined)	5.08
CNC(=O)COc1cccc(OCC(O)CNC(C)C)c1 (centres undefined)	0.35
CCCOC(=O)CNC(=O)CCCCSc1ncnc2nc[nH]c12	1.37
N#CC(CCN1CCC(C(N)=O)(N2CCCCC2)CC1)(c1ccccc1)c1ccccc1	3.91
CO[C@@]1(NC(=O)Cc2cccs2)C(=O)N2C(C(=O)O)=C(COC(N)=O)CS[C@@H]21	-0.02
CCCN(CCC)CC(=O)NCc1ccccc1	3.11
CCCn1c(=O)[nH]c(=O)c2[nH]cnc21	0.33
CC(=O)OC(C(=O)ON=C(C)C12CC3CC(CC(C3)C1)C2)c1ccccc1 (centres undefined)	5.89
COc1cc(OC)cc(C2C(=O)c3ccccc3C2=O)c1	2.86
Cc1cc(C)c(O)c(C)c1	2.73
O=C(NC1CCCCC1)NS(=O)(=O)c1ccc(Cl)cc1	3.38
CCN1CC(C(O)C(CC2CCCCC2)NC(=O)C(Cc2cscn2)NC(=O)C(CC(=O)N2CCOCC2)c2ccccc2)OC1=O (centres undefined)	2.83
CCCCCCCCCCC(C)(C)c1ccc(C2CCCC(O)C2)c(O)c1 (centres undefined)	8.42
CCOC1OC(CO)C(O)C(O)C1O (centres undefined)	-2.28
CC(C)C(Nc1ccccc1)C(=O)OCc1ccccc1 (centres undefined)	4.41
COc1ccc(NC(=O)CN2CCCCC2)cc1	2.52
CCOC(=O)c1cnc(-c2ccc(OCC(O)CNCCc3ccc(OC)c(OC)c3)cc2)[nH]1 (centres undefined)	2.3
CCc1cccc2ccccc12	4.4
CNC(=O)NS(=O)(=O)c1ccc(Cl)cc1	1.16
Cc1cccc(C(=O)c2ccc3n2CCC3C(=O)O)c1 (centres undefined)	3.23
CCc1cccc(C2C(=O)c3ccccc3C2=O)c1	3.92
N[C@@H](Cc1ccc(O)c(O)c1)C(=O)O	-2.39
Clc1cc(Cl)cc(-c2ccccc2)c1	5.41

Structure (SMILES)	logP
C=C1C(=O)OC2CC3(C)CCCC(=C)C3CC12 (centres undefined)	3.42
CC(=O)c1ccccc1Br	2.28
O=C1C(Nc2ccccc2)=C(S(=O)(=O)c2ccccc2)C(=O)c2ccccc21	3.38
O=C(O)c1ccc(Cl)cc1Nc1ccc(I)cc1	5.37
CCCCCCCCCCC(=O)O	4.42
O=C(c1ccc(F)cc1F)c1ccc2n1CCC2C(=O)O (centres undefined)	2.59
CCN1CC(C(O)C(CC2CCCCC2)NC(=O)C(Cc2cc[nH]n2)NC(=O)C(CC(=O)N2CCOCC2)Cc2ccccc2)OC1=O (centres undefined)	2.49
CCCCOC(=O)COc1cc(Cl)c(Cl)cc1Cl	4.81
O=C(CN1CCOCC1)NCc1ccccc1	0.67
OCc1cccc2ccccc12	2.37
Cc1cc(Br)cc(C(N)=O)c1O	2.76
CCCCCCCCCCCCCC(=O)O	6.11
NNc1nncc2ccccc12	1
O=Cc1cccc(Cl)c1	2.26
O=[N+]([O-])c1ccc(O)cc1O	1.05
CCCCCc1cc(O)c2c(c1)OC(C)(C)[C@@H]1CCC(CO)=C[C@@H]21	5.33
C=CC(=O)OCCOCCOCCOC(=O)C=C	0.96
C=C1C(=O)OC2C1C(OC(=O)C=C(C)C)CC1=CC(CC3(C)OC23)OC1=O (centres undefined)	1.05
CC(=O)OCCN1C(=O)C(OC(C)=O)N=C(c2ccccc2)c2cc(Cl)ccc21 (centres undefined)	2.74
O=C1C[N+]([O-])=C(c2ccccc2)c2cc(Cl)ccc2N1	1.49
CN1CCC(=C2c3ccccc3C=Cc3ccccc32)CC1	4.69
CCC(C(=O)OCc1ccccc1)C(COC(=O)c1cccnc1)Cc1cncn1C (centres undefined)	3.05
Cc1ccc(Br)cc1N=C1NCCN1	1.94
CS(=O)CCn1ccnc1[N+](=O)[O-] (centres undefined)	-1.22
CCC1(c2ccccc2)C(=O)N=C(OC(C)C)NC1=O (centres undefined)	1.79

Structure (SMILES)	logP
CCC(O)(C(N)=O)c1ccccc1 (centres undefined)	1.2
CCOC(=O)Cn1nnc2ccccc21	1.3
CCOCc1ccccc1	2.16
OC(CN1CCCC1)(c1ccc(F)cc1)c1ccc(-c2ccncc2)cc1 (centres undefined)	3.84
O=[N+]([O-])c1cc(F)cc(F)c1	2.03
CC1(C)CCC(c2ccccc2)(N2CCCCC2)CC1	6.39
O=C1CN=C(c2ccccc2)c2cc(Br)ccc2N1	3.11
O=C(O)c1cc2ccccc2cc1O	3.05
Cc1ccc(S(=O)(=O)NC(=O)NC2CCCCC2)cc1	2.9
CCOP(=O)(Cc1ccc(-c2nc3ccccc3s2)cc1)OCC	3.5
CCCCCCC(C)(C)c1ccc(C2CC(O)CCC2CCCO)c(O)c1 (centres undefined)	6.13
O=C1C2C3C=CC(C3)C2C(=O)N1CCCCN1CCN(c2ncccn2)CC1 (centres undefined)	1.36
c1ccc(-c2cnc3ccccc3n2)cc1	3.48
Cc1cc(=O)n2c(n1)CCCC2C (centres undefined)	0.67
c1ccc(C2CCCN2)cc1 (centres undefined)	1.89
CCC1(CC)C(=O)N=C(OC(C)C)NC1=O	1.44
NS(=O)(=O)c1ccc(Cl)c(Cl)c1	1.44
COc1cc(S(C)=O)ccc1-c1nc2ncccc2[nH]1 (centres undefined)	1.18
CC1CCC2C(C)C(OC(=O)Oc3ccccc3)OC3OC4(C)CCC1C32OO4 (centres undefined)	4.41
CCOC(=O)c1ccc(S(N)(=O)=O)cc1	1.17
CC(N)CC1CCCCC1 (centres undefined)	2.96
c1ccc(CC2=NCCN2)cc1	2.65
OC1c2ccccc2C2CCCCC2C1O (centres undefined)	2.47
O=C(O)c1cc(-c2ccc(F)cc2F)ccc1O	4.44
Clc1cccc(-c2cccc(Cl)c2)c1	5.27

Structure (SMILES)	logP
O=C(O)C1CCc2cc(Cl)ccc2O1 (centres undefined)	2.4
C#CCC(O)(c1cccnc1)C1CCCCC1 (centres undefined)	2.09
O=[N+]([O-])O[C@@H]1CO[C@H]2[C@@H]1OC[C@@H]2O	-0.15
OCc1ccc(C(O)(Cn2ccnc2)c2ccc(-c3ccncc3)cc2)cc1 (centres undefined)	2.4
CCC(CC)C(=O)O	1.68
ClC(Cl)=C(c1ccc(Cl)cc1)c1ccc(Cl)cc1	6.51
CO[C@@]1(NC(=O)CSCC#N)C(=O)N2C(C(=O)O)=C(CSc3nnnn3C)CS[C@@H]21	-0.6
OC(Cn1ccnc1)(c1ccc(Cl)cc1)c1ccc(-c2ccncc2)cc1 (centres undefined)	3.27
COc1cc(OC)c(Cl)c(Cc2cnc(N)nc2N)c1Cl	2.55
COC(C)(OC)c1ccc(C(O)(Cn2ccnc2)c2ccc(-c3ccncc3)cc2)cc1 (centres undefined)	3.45
CCN1CC(C(O)C(CC2CCCCC2)NC(=O)C(Cc2cnc[nH]2)NC(=O)C(CC(=O)N(C)CCOCOCCOC)Cc2ccccc2)OC1=O (centres undefined)	2.21
CC(C)Nc1nc(Cl)nc(NC2CC2)n1	3.06
CN(C)CCC(c1ccccc1)c1ccc(C(C)(C)C)cc1 (centres undefined)	5.1
Cc1nc(Cl)c(C#N)cc1-c1ccccc1	3.24
Nc1ccc(O)c2ncccc12	-0.11
CCCCCCCOC1OC(CO)C(O)C(O)C1O (centres undefined)	0.73
Cc1ccc(Cl)c(N=C2NCCN2)c1	1.83
CC(=Cc1ccccc1)C(=O)O	2.6
COc1ccc(Cc2cnc(N)nc2N)cc1N(C)C	1.68
CCOC(=O)c1cccc(O)c1	2.47
c1ccc(-c2ccc(-c3ccccc3)cc2)cc1	6.03
c1ccc(-c2cc3ccccc3cn2)nc1	3.05
CC1c2nc3ccccc3c(=O)n2CN1CCc1ccccc1 (centres undefined)	1.8
Cc1cc2ccccc2o1	3.22
